Consider 10 compounds from ChEMBL document CHEMBL5058564, “EUbOPEN Chemogenomics Library 2 (Incucyte)” (2022).

Where a SMILES comes first, the peptide text is derived from it. [ ]: non-standard residue; d: D form.

Holding throughout (format): toxicity, cell-based
One series concerns HEK-293T. The series is described as follows: Incucyte cell viability with HEK293T. Conditions: human, 10 µM, compound concentration 10 uM.
A further series has as its system Fibroblast. The series is described as follows: Incucyte cell viability with human fibroblast. The note with it: 10 µM, compound concentration 10 uM.
The next series has as its system U2OS. The series is described as follows: Incucyte cell viability with U2OS. The note with it: human, 10 µM, compound concentration 10 uM.
Where [1] appears, read: 0 h, replicate number 1, timepoint 0 hours.
Setting [2] is: 0 h, replicate number 2, timepoint 0 hours.
Setting [3] is: 6 h, replicate number 1, timepoint 6 hours.
Where [4] appears, read: 12 h, replicate number 1, timepoint 12 hours.
[5] abbreviates: 24 h, replicate number 1, timepoint 24 hours.
The mark [6] stands for this setting: 24 h, replicate number 2, timepoint 24 hours.
Setting [7] is: 6 h, replicate number 2, timepoint 6 hours.
Setting [8] is: 12 h, replicate number 2, timepoint 12 hours.
[9] abbreviates: 18 h, replicate number 1, timepoint 18 hours.
Setting [10] is: 18 h, replicate number 2, timepoint 18 hours.
Further: unitless GR value; below 1 slowed growth and below 0 cell loss.

As to `CC[C@@]1(O)C(=O)OCc2c1cc1n(c2=O)Cc2cc3ccccc3nc2-1` [CAMPTOTHECIN], the “Growth Rate” value in the series with HEK-293T (setting [1]) is given as -0.84; in the series with HEK-293T (setting [2]), 0.83; in the series on HEK-293T (setting [3]) it was -0.29; in the series with HEK-293T (setting [4]), 0.88; in the series on HEK-293T (setting [5]), 0.65; in the series on HEK-293T (setting [6]), 0.41. Also, the “Growth Rate” value in the series on Fibroblast (setting [1]) is given as -0.02; with Fibroblast (setting [2]), 0.11; with Fibroblast (setting [3]) it was 1; with U2OS (setting [1]), -0.11; in the series on U2OS (setting [2]) it was -0.34; in the series with U2OS (setting [3]), 0.7. In addition, the “Growth Rate” value in the series on U2OS (setting [7]) is reported as 0.82; in the series on U2OS (setting [4]), 0.75; in the series with U2OS (setting [8]), 0.64; in the series with U2OS (setting [9]) it was 0.59; with U2OS (setting [10]), 0.33; in the series on U2OS (setting [5]) it was 0.48. Also, the “Growth Rate” value with U2OS (setting [6]) is 0.2.
In the case of `C[C@H]1CN(C[C@H](Cc2ccccc2)C(=O)NCC(=O)O)CC[C@@]1(C)c1cccc(O)c1` [ALVIMOPAN], the “Growth Rate” value in the series on HEK-293T (setting [1]) turned out to be 0.62; in the series on HEK-293T (setting [2]) it was 0.08; in the series with HEK-293T (setting [7]), 0.52; with HEK-293T (setting [4]) it was 0.9; in the series with HEK-293T (setting [8]), 0.53; with HEK-293T (setting [9]), 1. Moreover, the “Growth Rate” value in the series with HEK-293T (setting [10]) is 0.88; with HEK-293T (setting [5]) it was 0.93; in the series on HEK-293T (setting [6]), 0.85; with Fibroblast (setting [1]) it was 0.37; in the series with Fibroblast (setting [2]), -0.31; in the series with U2OS (setting [2]), 0.76. Besides, the “Growth Rate” value in the series on U2OS (setting [3]) is 0.22; in the series with U2OS (setting [8]), 0.99; in the series with U2OS (setting [9]) it was 0.91; in the series on U2OS (setting [10]), 0.92; with U2OS (setting [6]), 0.94.
In the case of `COc1ccc(NC(=O)c2ccc(-c3ccc(-c4noc(C)n4)cc3C)cc2)cc1OCCN(C)C.Cl`, the “Growth Rate” value in the series on HEK-293T (setting [2]) is -0.89; in the series with HEK-293T (setting [3]), -0.88; with HEK-293T (setting [7]), -0.73; with HEK-293T (setting [4]), -0.65; in the series with HEK-293T (setting [8]), -0.38; with HEK-293T (setting [9]), -0.53. Besides, the “Growth Rate” value is -0.31 in the series with HEK-293T (setting [10]); -0.45 with HEK-293T (setting [5]); -0.35 in the series on HEK-293T (setting [6]); -0.36 in the series on Fibroblast (setting [3]); -0.28 with Fibroblast (setting [7]); -0.41 with Fibroblast (setting [4]). Besides, the “Growth Rate” value in the series on Fibroblast (setting [8]) is on record as -0.33; in the series on Fibroblast (setting [9]), -0.47; in the series on Fibroblast (setting [10]), -0.48; in the series with Fibroblast (setting [5]), -0.57; in the series with Fibroblast (setting [6]) it was -0.52; with U2OS (setting [1]) it was -0.87. The “Growth Rate” value with U2OS (setting [2]) was -1; with U2OS (setting [3]) it was -0.71; with U2OS (setting [4]) it was -0.36; in the series on U2OS (setting [8]) it was 0.51; in the series on U2OS (setting [9]) it was -0.17; in the series on U2OS (setting [10]) it was 0.28. The “Growth Rate” value with U2OS (setting [5]) is reported as -0.18; in the series with U2OS (setting [6]), 0.14.
For `CN[C@@H]1C[C@H]2O[C@@](C)([C@@H]1OC)n1c3ccccc3c3c4c(c5c6ccccc6n2c5c31)C(=O)NC4` [STAUROSPORINE], the “Growth Rate” value in the series on HEK-293T (setting [1]) is listed as -0.75; in the series on HEK-293T (setting [2]), -0.46; in the series with HEK-293T (setting [9]), 0.33; in the series with HEK-293T (setting [10]), 0.42; in the series on HEK-293T (setting [5]), 0.11; in the series on HEK-293T (setting [6]) it was 0.09. The “Growth Rate” value with Fibroblast (setting [1]) is 0.05; with Fibroblast (setting [2]), -0.7; in the series on Fibroblast (setting [4]), 0.41; in the series with Fibroblast (setting [9]), 0; with Fibroblast (setting [10]), 0.61; in the series with Fibroblast (setting [5]) it was -0.13. Besides, the “Growth Rate” value is listed as 0.35 in the series on Fibroblast (setting [6]); 0.79 with U2OS (setting [9]); 0.69 in the series on U2OS (setting [10]); 0.65 in the series with U2OS (setting [5]); 0.49 in the series on U2OS (setting [6]).
For `CCc1ccccc1C(=O)Nc1n[nH]c2c(C)c(F)c(C3C(C#N)=C(C)N(C)C(C)=C3C#N)cc12` [BAY-3827], the “Growth Rate” value with HEK-293T (setting [2]) is reported as -1; with HEK-293T (setting [3]), 0.43; with HEK-293T (setting [4]), 0.35; with HEK-293T (setting [9]), 0.5; in the series with HEK-293T (setting [5]) it was 0.55; with Fibroblast (setting [1]) it was 0.51. The “Growth Rate” value in the series on Fibroblast (setting [2]) was -0.4; in the series on Fibroblast (setting [3]), 0.12; in the series with Fibroblast (setting [4]), 0.64; in the series on Fibroblast (setting [9]) it was 0.79; in the series with Fibroblast (setting [5]), 0.56; in the series with U2OS (setting [2]), 0.74. Further, the “Growth Rate” value in the series with U2OS (setting [6]) is recorded as 0.87.
In the case of `CCNC(=O)[C@H]1O[C@@H](n2cnc3c(N)nc(NCCc4ccc(CCC(=O)O)cc4)nc32)[C@H](O)[C@@H]1O.Cl`, the “Growth Rate” value in the series with HEK-293T (setting [1]) was found to be 0.05; with HEK-293T (setting [2]) it was 0.1; with HEK-293T (setting [3]), 0.95; in the series with Fibroblast (setting [2]) it was 0.98; with Fibroblast (setting [3]), 0.96; in the series with Fibroblast (setting [7]) it was 0.47. In addition, the “Growth Rate” value is 0.63 in the series on Fibroblast (setting [8]); -0.07 with U2OS (setting [1]); 0 in the series on U2OS (setting [3]); 0.99 in the series on U2OS (setting [7]); 0.64 in the series with U2OS (setting [4]); 0.96 in the series with U2OS (setting [9]). Also, the “Growth Rate” value in the series on U2OS (setting [6]) was found to be 0.97.
Regarding `Cl.NCCc1ccc(O)c(O)c1` [DOPAMINE HYDROCHLORIDE], the “Growth Rate” value came out at 0.96 in the series with HEK-293T (setting [1]); 0.72 in the series with HEK-293T (setting [3]); 0.97 in the series with HEK-293T (setting [4]); 0.12 with Fibroblast (setting [1]); 0.55 in the series on Fibroblast (setting [2]); 0.26 in the series with Fibroblast (setting [7]). Also, the “Growth Rate” value in the series on Fibroblast (setting [8]) was 0.67; in the series with Fibroblast (setting [10]), 0.95; with U2OS (setting [1]), 0.15; in the series on U2OS (setting [3]) it was 0.57; in the series with U2OS (setting [4]), 0.79; in the series on U2OS (setting [9]), 0.8. In the series on U2OS (setting [5]), the “Growth Rate” value was 0.95.
As for `N[C@@H]1c2cccnc2[C@H](OC(=O)N2CCC(n3c(=O)[nH]c4ncccc43)CC2)CC[C@H]1c1cccc(F)c1F` [RIMEGEPANT], the “Growth Rate” value in the series on HEK-293T (setting [2]) is listed as 0.87; with HEK-293T (setting [3]) it was 0.99; with HEK-293T (setting [7]), 0.67; in the series with HEK-293T (setting [5]), 0.89; in the series on Fibroblast (setting [1]), 0.86; with Fibroblast (setting [3]), -0.21. Moreover, the “Growth Rate” value in the series on Fibroblast (setting [7]) is reported as 0.05; with Fibroblast (setting [4]), -0.05; in the series on Fibroblast (setting [8]), -0.02; in the series with Fibroblast (setting [9]), 0.2; in the series with Fibroblast (setting [10]), 0.18; in the series with Fibroblast (setting [5]) it was 0.1. Further, the “Growth Rate” value in the series with Fibroblast (setting [6]) is given as -0.18; in the series on U2OS (setting [1]), -0.42; in the series with U2OS (setting [7]), 0.88; in the series on U2OS (setting [10]) it was 0.96; in the series with U2OS (setting [6]), 0.87.
Turning to `CC(C)C[C@@H]1NC(=O)[C@@H](C(C)C)NC(=O)[C@@H]2CCCN2C(=O)[C@@H](CC(=O)O)NC(=O)[C@@H](Cc2c[nH]c3ccccc23)NC1=O` [BQ-123] (cyclo(L[dW][dD]P[dV])), the “Growth Rate” value is on record as 0.79 with HEK-293T (setting [2]); 0.89 in the series on HEK-293T (setting [3]); 0.92 in the series on HEK-293T (setting [4]); 0.91 in the series with HEK-293T (setting [9]); 0.97 in the series on HEK-293T (setting [5]); 0.41 with Fibroblast (setting [1]). Further, the “Growth Rate” value in the series with Fibroblast (setting [2]) is 0.34; in the series with Fibroblast (setting [3]) it was 0.81; in the series with Fibroblast (setting [7]), 0.18; in the series with Fibroblast (setting [4]) it was 0.87; in the series on Fibroblast (setting [8]), 0.89; in the series with Fibroblast (setting [9]) it was 0.98. The “Growth Rate” value is reported as 0.94 in the series on Fibroblast (setting [10]); -1 in the series with U2OS (setting [2]); 0.51 in the series on U2OS (setting [3]); 0.68 in the series on U2OS (setting [7]); 0.65 with U2OS (setting [4]); 0.49 with U2OS (setting [9]). Besides, in the series with U2OS (setting [5]), the “Growth Rate” value is given as 0.93.
Take `O=C(O)CCC/C=C\C[C@H]1C(=O)C[C@@H](O)[C@@H]1/C=C/[C@@H](O)CCc1ccccc1`: the “Growth Rate” value in the series on HEK-293T (setting [2]) was -0.05; in the series with HEK-293T (setting [3]) it was 0.8; in the series on HEK-293T (setting [4]), 0.68; in the series on HEK-293T (setting [9]) it was 1; with HEK-293T (setting [5]), 0.89; in the series on Fibroblast (setting [1]), 0.15. Also, the “Growth Rate” value is listed as -0.3 in the series with Fibroblast (setting [2]); 0 in the series with Fibroblast (setting [3]); 0.4 in the series on Fibroblast (setting [4]); 0.74 in the series on Fibroblast (setting [9]); 0.66 with Fibroblast (setting [5]); 0.49 in the series with U2OS (setting [1]). Besides, the “Growth Rate” value with U2OS (setting [3]) stood at 0.41; with U2OS (setting [4]), 0.52; in the series on U2OS (setting [9]) it was 0.77; in the series with U2OS (setting [5]), 0.97.
